Data: PMC11094793, “Discovery of LLC0424 as a Potent and Selective in Vivo NSD2 PROTAC Degrader” (Journal of Medicinal Chemistry, 2024)
pIC50: −log10 of the molar value. Read-outs that look alike come from different tables or passages of the source.

What was measured:
SEM cells = assay: Cell viability assay (CellTiter-Glo, 7 days), SEM; assay type: cell-based, human; conditions: Homo sapiens, 168 h, read-out: IC50 (growth, cell viability)
Method: (§1) Cells were plated in 50 μL of the corresponding media in 96-well plates. A 2-fold dilution series of 2* concentrated LLC0424 was prepared in a medium with the highest concentration being 60 μM. Then 50 μL of the 2× compound-containing mixture was added to each well with 6 replicates for each concentration, reaching 1× concentration, with the highest concentration being 30 μM. The plate was incubated for 7 days. At the end point, the CellTiter-Glo assay (Promega) was then performed according to the manufacturer’s instruction to determine cell proliferation. The luminescence signal intensity of each well was acquired on an Infinite M1000Pro microplate reader and the data was analyzed using GraphPad Prism software (GraphPad Software).

RPMI-8402 cells [1] = assay: TMT global proteomics in RPMI-8402 cells; assay type: cell-based, human; conditions: for Abundance Ratio (log2): (LLC0424) / (DMSO): RPMI-8402
Method: (§2) We conducted a global proteomic assay using tandem mass tags (TMT) labeled mass-spectrometry to unbiasedly quantify the protein change upon LLC0424 treatment in VCaP and RPMI-8402 cells. […] We further used SEM cell line to cross-validate the selectivity of LLC0424 for NSD2 over NSD1 and NSD3 as well as CRBN neo-substrates IKZF1, IKZF3, GSPT1, and CK-1α using immunoblotting. […] When we increased the treatment time of LLC0424 in SEM cells, we observed mild decrease of GSPT1 from 12 h (SI, Figure S3F).
RPMI-8402 cells were plated at 10 × 10^6 cells per plate on 10 cm tissue culture plates overnight before treating with DMSO (control) or 2 μM LLC0424 with 3 replicates for each treatment. After 8 h, whole cell lysates were collected using RIPA buffer (ThermoFisher Scientific) and quantified using Pierce Bovine Serum Albumin Standard Pre-Diluted Set (ThermoFisher Scientific). Cell lysates were proteolyzed and labeled with TMT 6-plex Isobaric Label Reagent (ThermoFisher Scientific) according to the protocol from the manufacturer and subjected to 8 fractions of liquid chromatography–mass spectrometry (LC-MS)/MS analysis as described.[33] We plotted the results using graphpad prism. To gain protein changes with high confidence, we screened the results of (LC-MS)/MS analysis with the criteria of peptides number >4 and unique peptides number >1. […]
Figure S3. LLC0424 was a selective NSD2 degrader. […]

NSD1 = biological target: T1, NSD1 (Homo sapiens, UniProt Q96L73); assay: Selectivity immunoblotting in SEM cells: NSD1; assay type: cell-based; conditions: 2 μM, 8 h
T1 construct: endogenous in cells; host or cells: SEM
T1 sequence (Q96L73 whole entry): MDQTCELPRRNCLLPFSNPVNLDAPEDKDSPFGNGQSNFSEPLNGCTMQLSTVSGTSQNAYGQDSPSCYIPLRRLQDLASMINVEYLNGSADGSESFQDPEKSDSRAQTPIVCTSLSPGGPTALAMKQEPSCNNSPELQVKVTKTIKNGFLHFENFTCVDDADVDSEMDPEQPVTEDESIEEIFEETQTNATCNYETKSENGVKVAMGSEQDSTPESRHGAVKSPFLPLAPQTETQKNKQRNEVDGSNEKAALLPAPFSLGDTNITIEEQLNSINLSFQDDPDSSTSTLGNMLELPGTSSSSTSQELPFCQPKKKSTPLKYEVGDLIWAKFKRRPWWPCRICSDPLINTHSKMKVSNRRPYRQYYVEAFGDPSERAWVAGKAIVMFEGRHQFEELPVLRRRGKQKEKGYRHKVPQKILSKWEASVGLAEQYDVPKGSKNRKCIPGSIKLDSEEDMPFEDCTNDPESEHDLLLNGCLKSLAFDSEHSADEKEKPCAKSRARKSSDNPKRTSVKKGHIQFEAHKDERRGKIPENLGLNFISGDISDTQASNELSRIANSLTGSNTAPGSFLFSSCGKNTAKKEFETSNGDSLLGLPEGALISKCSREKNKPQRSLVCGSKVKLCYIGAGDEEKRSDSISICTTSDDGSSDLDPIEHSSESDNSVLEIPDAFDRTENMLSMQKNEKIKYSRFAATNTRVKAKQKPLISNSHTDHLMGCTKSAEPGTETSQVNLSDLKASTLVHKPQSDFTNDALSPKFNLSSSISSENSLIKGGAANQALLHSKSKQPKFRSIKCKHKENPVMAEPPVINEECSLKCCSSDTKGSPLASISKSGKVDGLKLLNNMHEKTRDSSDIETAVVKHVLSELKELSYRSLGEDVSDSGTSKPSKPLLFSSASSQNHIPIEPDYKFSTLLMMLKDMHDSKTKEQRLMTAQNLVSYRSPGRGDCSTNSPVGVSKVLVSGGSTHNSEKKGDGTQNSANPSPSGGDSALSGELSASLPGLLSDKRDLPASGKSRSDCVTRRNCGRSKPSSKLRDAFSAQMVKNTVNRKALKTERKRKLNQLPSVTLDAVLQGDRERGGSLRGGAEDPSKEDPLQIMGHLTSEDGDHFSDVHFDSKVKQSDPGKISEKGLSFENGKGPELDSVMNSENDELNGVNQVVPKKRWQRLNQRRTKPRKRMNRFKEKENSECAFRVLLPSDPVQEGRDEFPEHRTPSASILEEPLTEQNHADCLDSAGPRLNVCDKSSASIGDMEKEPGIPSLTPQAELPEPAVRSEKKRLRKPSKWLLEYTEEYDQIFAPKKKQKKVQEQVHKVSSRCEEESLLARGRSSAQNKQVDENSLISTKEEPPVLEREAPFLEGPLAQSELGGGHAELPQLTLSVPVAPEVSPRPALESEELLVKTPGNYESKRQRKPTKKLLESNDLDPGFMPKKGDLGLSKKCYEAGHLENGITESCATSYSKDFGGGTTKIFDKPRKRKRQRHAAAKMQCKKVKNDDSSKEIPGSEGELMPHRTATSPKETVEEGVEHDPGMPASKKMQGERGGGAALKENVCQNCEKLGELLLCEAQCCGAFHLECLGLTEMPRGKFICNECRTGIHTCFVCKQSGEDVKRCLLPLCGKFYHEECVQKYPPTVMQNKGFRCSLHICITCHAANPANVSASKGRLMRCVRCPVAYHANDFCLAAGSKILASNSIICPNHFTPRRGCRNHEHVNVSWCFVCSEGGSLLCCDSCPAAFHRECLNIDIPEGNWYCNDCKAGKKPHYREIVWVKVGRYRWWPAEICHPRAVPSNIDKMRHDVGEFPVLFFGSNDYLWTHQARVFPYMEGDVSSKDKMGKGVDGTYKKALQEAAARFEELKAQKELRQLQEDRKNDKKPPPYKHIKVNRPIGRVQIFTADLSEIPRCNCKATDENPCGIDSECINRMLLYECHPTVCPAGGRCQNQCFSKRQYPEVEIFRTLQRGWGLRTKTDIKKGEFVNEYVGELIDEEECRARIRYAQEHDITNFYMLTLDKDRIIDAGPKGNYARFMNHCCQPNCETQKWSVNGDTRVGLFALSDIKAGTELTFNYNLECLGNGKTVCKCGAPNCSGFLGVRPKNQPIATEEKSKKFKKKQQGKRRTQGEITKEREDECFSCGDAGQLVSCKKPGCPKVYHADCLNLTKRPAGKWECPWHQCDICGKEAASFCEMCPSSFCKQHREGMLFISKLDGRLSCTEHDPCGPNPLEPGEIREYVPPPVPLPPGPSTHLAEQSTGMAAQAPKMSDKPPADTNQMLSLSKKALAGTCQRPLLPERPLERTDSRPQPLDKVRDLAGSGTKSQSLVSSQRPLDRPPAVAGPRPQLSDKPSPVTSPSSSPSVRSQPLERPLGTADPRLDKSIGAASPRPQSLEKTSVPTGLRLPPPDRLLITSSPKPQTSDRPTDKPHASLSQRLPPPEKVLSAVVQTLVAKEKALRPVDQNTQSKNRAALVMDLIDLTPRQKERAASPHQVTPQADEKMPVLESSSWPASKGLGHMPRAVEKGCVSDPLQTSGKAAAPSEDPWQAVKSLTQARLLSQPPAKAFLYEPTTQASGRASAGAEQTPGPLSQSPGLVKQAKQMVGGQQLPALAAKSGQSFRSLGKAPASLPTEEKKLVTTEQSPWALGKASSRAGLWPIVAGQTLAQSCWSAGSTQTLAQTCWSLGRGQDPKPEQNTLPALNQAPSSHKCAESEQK
Method: as §2
After treatment, the cultured cells were collected and rinsed with phosphate-buffered saline (PBS) in room temperature. The cells were treated with RIPA buffers (ThermoFisher Scientific) supplemented with Halt Protease and Phosphatase Inhibitor Cocktail (ThermoFisher Scientific). After sonication and centrifugation, the total amount of protein in the cell lysates was measured by Pierce Bovine Serum Albumin Standard Pre-Diluted Set (ThermoFisher Scientific). After mixed with LDS-sample buffer (Invitrogen) supplemented with Sample Reducing Agent (Invitrogen) and heated in 70 °C for 10 min, equal amount of protein was loaded into NuPAGE 4–12%, Bis-Tris Protein Gel (ThermoFisher Scientific) or NuPAGE 3–8%, Tris-Acetate Protein Gel (ThermoFisher Scientific), and blotted with primary antibodies. […]

[2] = PK parameters in rats (LC/MS/MS); conditions: rat, in vivo; for MRT last: read-out: MRT (0-t)
Excerpt: Table S4. PK parameters of LLC0424 in rats a Route/dose T1/2 Tmax Cmax AUC(0-t) CL MRT Vss F(%) […]
aDetermined using LC/MS/MS. T1/2: elimination half-life; Tmax: time for maximum concentration; Cmax: maximum concentration; AUC: the area under the curve; CL: clearance; MRT: mean residence time; Vss: volume of distribution; F: oral

RPMI-8402 cells [3] = assay: Cell viability assay (CellTiter-Glo, 7 days), RPMI-8402; assay type: cell-based, human; conditions: Homo sapiens, 168 h, read-out: IC50 (growth, cell viability)
Method: as §1

O=C1CCC(N2C(=O)c3ccc(N4CCC(NC(=O)c5ccc(NC(=O)c6ccc(CN(C(=O)c7ccc8c(c7)OCC(=O)N8)C7CC7)cc6)cc5)CC4)cc3C2=O)C(=O)N1 (stereo not shown) [compound 10l, N-Cyclopropyl-N-(4-((4-((1-(2-(2,6-dioxopiperidin-3-yl)-1,3-dioxoisoindolin-5-yl)piperidin-4-yl)carbamoyl)phenyl)carbamoyl)benzyl)-3-oxo-3,4-dihydro-2H-benzo[b][1,4]oxazine-7-carboxamide]
pIC50 (SEM cells): 5.45
Abundance Ratio (log2): (LLC0424) / (DMSO) (RPMI-8402 cells [1]; protein accession P35579): 0.04
Abundance Ratio (log2): (LLC0424) / (DMSO) (RPMI-8402 cells [1]; protein accession P78527): -0.02
Abundance Ratio (log2): (LLC0424) / (DMSO) (RPMI-8402 cells [1]; protein accession Q01082): 0.05
Abundance Ratio (log2): (LLC0424) / (DMSO) (RPMI-8402 cells [1]; protein accession Q13813): 0.03
Abundance Ratio (log2): (LLC0424) / (DMSO) (RPMI-8402 cells [1]; protein accession Q14204): 0.05
number of proteins significantly decreased in global proteomics (RPMI-8402 cells [1]; RPMI-8402 cells, 2 μM): 3
NSD1 protein level (NSD1): remained unchanged
AUC(0-t) ([2]; iv, i.v. 2 mg/kg): 4320 ng·h/mL
Cmax ([2]; iv, i.v. 2 mg/kg): 7320 ng/mL
Tmax ([2]; iv, i.v. 2 mg/kg): 0.083 h
clearance ([2]; iv, i.v. 2 mg/kg): 7.58 mL/min/kg
half-life ([2]; iv, i.v. 2 mg/kg): 2.1 h
MRT last ([2]; iv, i.v. 2 mg/kg): 1.28 h
Vd ([2]; iv, i.v. 2 mg/kg, read-out: Vss): 0.763 L/kg
AUC(0-t) ([2]; oral 10 mg/kg): 777 ng·h/mL
Cmax ([2]; oral 10 mg/kg): 162 ng/mL
Tmax ([2]; oral 10 mg/kg): 2 h
bioavailability ([2]; oral 10 mg/kg): 3.67%
half-life ([2]; oral 10 mg/kg): 1.52 h
MRT last ([2]; oral 10 mg/kg): 3.18 h
pIC50 (RPMI-8402 cells [3]): 6.25
